Our source for the inhibition values is patent US9416115B2, “Fused heterocyclic compounds as ion channel modulators” (Gilead Sciences, Inc., priority 2013, dated 2016).

Like-named read-outs stand apart in the source and are kept apart here. Where only a bound is given, the exact number is not on record here.

Test [1] deals with T1, wild-type human cardiac sodium channel, hNav1.5 (Homo sapiens, UniProt Q14524). Briefly: Late INa screening assay (QPatch whole cell patch clamp, Tefluthrin-induced late current). The format is cell-based. As to conditions: HEK293 hNav1.5, percent block of late INa. In short, it runs like this: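 HEK293 cells stably expressing hNav1.5 without beta subunits were whole-cell patch clamped at 23-25 °C, stepping from −120 to −20 mV for 250 ms at 0.1 Hz. Late current (240–265 ms) was induced with 10 μM Tefluthrin, and compounds were added typically at 0.3 or 1 μM. Percent block was taken against 0 Na baseline with rundown correction.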
T1 sequence (Q14524 whole entry): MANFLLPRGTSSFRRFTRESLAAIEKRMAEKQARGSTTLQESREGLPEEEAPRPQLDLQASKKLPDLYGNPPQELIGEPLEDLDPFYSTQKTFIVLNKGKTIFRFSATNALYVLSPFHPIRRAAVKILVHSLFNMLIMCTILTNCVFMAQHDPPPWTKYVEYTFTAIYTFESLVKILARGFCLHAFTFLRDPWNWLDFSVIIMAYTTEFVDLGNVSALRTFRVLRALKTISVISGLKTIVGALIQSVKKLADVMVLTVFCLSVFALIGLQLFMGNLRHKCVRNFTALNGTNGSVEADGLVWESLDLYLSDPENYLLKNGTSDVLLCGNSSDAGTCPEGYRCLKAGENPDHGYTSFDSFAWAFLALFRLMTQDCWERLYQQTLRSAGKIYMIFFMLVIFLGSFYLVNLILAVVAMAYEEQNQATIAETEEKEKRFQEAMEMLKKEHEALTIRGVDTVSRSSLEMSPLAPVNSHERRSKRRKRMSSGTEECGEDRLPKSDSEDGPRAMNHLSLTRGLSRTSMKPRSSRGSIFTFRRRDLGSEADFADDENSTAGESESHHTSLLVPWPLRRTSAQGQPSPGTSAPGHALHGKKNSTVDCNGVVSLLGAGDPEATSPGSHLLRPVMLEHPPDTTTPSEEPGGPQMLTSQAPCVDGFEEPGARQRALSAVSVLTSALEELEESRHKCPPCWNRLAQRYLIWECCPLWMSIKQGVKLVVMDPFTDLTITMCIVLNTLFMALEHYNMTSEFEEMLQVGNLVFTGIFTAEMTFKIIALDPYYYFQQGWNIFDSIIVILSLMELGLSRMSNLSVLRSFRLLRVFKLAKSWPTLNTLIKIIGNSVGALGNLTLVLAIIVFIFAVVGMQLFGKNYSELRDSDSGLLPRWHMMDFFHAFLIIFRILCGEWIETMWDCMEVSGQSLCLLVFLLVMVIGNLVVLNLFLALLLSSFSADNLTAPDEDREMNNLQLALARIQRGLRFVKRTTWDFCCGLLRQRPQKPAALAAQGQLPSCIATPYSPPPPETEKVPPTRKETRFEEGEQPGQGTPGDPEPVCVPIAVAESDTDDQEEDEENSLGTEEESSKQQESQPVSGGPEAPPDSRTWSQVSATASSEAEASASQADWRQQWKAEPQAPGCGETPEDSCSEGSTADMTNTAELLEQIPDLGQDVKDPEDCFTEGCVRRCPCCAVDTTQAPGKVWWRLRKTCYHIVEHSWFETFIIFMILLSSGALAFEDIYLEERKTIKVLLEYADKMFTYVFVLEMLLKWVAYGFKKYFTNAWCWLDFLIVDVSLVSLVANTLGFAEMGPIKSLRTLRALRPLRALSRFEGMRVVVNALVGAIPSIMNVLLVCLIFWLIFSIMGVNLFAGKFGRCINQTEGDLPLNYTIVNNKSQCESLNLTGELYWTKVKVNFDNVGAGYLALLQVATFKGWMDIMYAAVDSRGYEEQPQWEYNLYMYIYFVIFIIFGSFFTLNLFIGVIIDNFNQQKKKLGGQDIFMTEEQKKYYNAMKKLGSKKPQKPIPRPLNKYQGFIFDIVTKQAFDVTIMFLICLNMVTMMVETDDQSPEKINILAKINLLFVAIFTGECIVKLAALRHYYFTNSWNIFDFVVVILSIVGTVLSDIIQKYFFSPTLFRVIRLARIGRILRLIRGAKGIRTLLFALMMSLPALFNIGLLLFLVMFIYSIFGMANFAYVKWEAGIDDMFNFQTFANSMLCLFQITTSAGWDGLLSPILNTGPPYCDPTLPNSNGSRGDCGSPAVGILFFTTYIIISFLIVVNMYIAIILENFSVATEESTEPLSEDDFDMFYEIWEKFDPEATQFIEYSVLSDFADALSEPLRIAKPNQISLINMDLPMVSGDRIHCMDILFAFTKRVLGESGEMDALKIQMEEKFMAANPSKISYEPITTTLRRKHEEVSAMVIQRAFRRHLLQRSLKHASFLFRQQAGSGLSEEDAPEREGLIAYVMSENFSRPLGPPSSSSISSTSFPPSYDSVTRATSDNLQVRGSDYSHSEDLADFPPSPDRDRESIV

The target of test [2] is T1, wild-type human cardiac sodium channel, hNav1.5. Nature of the test: Peak INa screening assay (tonic block and use-dependent block). Format: cell-based. An outline of the steps: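 Whole-cell automated patch clamp, 23-25° C, on hNav1.5 alpha-only HEK293 cells with Na+ lowered to 40 mM by choline. Block measured after two additions of 1 or 3 μM compound and 200 s wait: tonic at 0.1 Hz, use-dependent at 50th pulse (−20 mV, 20 ms, 3 Hz) from −100 mV, relative to drug-free, rundown corrected.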

The mark [3] stands for this setting: tonic block of Peak INa, 0.1 Hz, holding -100 mV, read-out: Peak TB 3 uM.
[4] abbreviates: use-dependent block of Peak INa, 3 Hz, pulse 50, read-out: Peak UDB 3 Hz 3 uM.

As for `Cc1cnc(COc2noc3ccc(-c4ccc(OC(F)(F)F)cc4)cc23)cn1` [Example 73, 3-((5-methylpyrazin-2-yl)methoxy)-5-(4-(trifluoromethoxy)phenyl)benzo[d]isoxazole], in test [1], the inhibition at 0.3 µM amounted to 20.4% and the inhibition at 1 µM amounted to 66.2%. For the same molecule, the inhibition at 3 µM in test [2] (setting [3]) was found to be 41.9%. In addition, in test [2] (setting [4]), the inhibition at 3 µM was below 5%.

For `FC(F)(F)Oc1ccc(-c2ccc3onc(NCc4ncco4)c3c2)cc1` [Example 156, N-(oxazol-2-ylmethyl)-5-(4-(trifluoromethoxy)phenyl)benzo[d]isoxazol-3-amine], in test [1], the inhibition at 0.3 µM was 37.9% and the inhibition at 1 µM was 62.8%. The inhibition at 3 µM in test [2] (setting [3]) amounted to 10.4%. Further, the inhibition at 3 µM in test [2] (setting [4]) is below 5%.

On to `Cc1cc(-c2ccc(OC(F)(F)F)cc2)cc2c(OCc3ncccn3)noc12` [Example 16, 7-methyl-3-(pyrimidin-2-ylmethoxy)-5-(4-(trifluoromethoxy)phenyl)benzo[d]isoxazole], for which the inhibition at 1 µM in test [1] was 54.2%. For the same molecule, the inhibition at 3 µM in test [2] (setting [3]) is 35.8%; in test [2] (setting [4]), below 5%.

In test [1], `Cc1cc(OC(F)(F)F)ccc1-c1ccc2onc(OCc3ncccn3)c2c1` [Example 3, 5-(2-methyl-4-(trifluoromethoxy)phenyl)-3-(pyrimidin-2-ylmethoxy)benzo[d]isoxazole] came in with an inhibition at 1 µM of 52.6%. Besides, the inhibition at 3 µM in test [2] (setting [3]) came out at 23.2%; in test [2] (setting [4]), 11.8%.

In the case of `FC(F)(F)Oc1ccc(-c2ccc3onc(-n4cncn4)c3c2)cc1` [Example 136, 3-(1H-1,2,4-triazol-1-yl)-5-(4-(trifluoromethoxy)phenyl)benzo[d]isoxazole], in test [1], the inhibition at 1 µM is 44.8%. For the same molecule, the results for the inhibition at 3 µM in test [2] (setting [3]) and in test [2] (setting [4]) were 10.5% and below 5%, respectively.

Take `CC(C)c1nccn1-c1noc2ccc(-c3ccc(OC(F)(F)F)cc3)cc12` [Example 144, 3-(2-isopropyl-1H-imidazol-1-yl)-5-(4-(trifluoromethoxy)phenyl)benzo[d]isoxazole]: in test [1], the inhibition at 0.3 µM amounted to 25.9% and the inhibition at 1 µM was 55.7%. Further, in test [2] (setting [3]), the inhibition at 3 µM was determined as 46.9%. In test [2] (setting [4]), the inhibition at 3 µM is below 5%.

In test [1], `FC(F)(F)c1ccc(-c2ccc3onc(OCc4ncccn4)c3c2)cc1` [Example 9, 3-(pyrimidin-2-ylmethoxy)-5-(4-(trifluoromethyl)phenyl)benzo[d]isoxazole] returned an inhibition at 0.3 µM of 36.4% and an inhibition at 1 µM of 58.9%. Besides, the inhibition at 3 µM in test [2] (setting [3]) is 41.3%. Moreover, the inhibition at 3 µM in test [2] (setting [4]) stood at 10.3%.

Molecule `COc1cc(-c2ccc(OC(F)(F)F)cc2)cc2c(OCc3ncccn3)noc12` [Example 22, 7-methoxy-3-(pyrimidin-2-ylmethoxy)-5-(4-(trifluoromethoxy)phenyl)benzo[d]isoxazole] registered an inhibition at 0.3 µM in test [1] of 17.7%. Besides, in test [1], the inhibition at 1 µM stood at 55.9%. In addition, the inhibition at 3 µM in test [2] (setting [3]) is 10.2%; in test [2] (setting [4]) it was below 5%.

As to `Cc1cn(-c2noc3ccc(-c4ccc(OC(F)(F)F)cc4)cc23)cn1` [Example 139, 3-(4-methyl-1H-imidazol-1-yl)-5-(4-(trifluoromethoxy)phenyl)benzo[d]isoxazole], in test [1], the inhibition at 1 µM was determined as 41.2%. Besides, the figures for the inhibition at 3 µM in test [2] (setting [3]) and in test [2] (setting [4]) were 15.6% and below 5%, respectively.

`FC(F)(F)Oc1ccc(-c2ccc3onc(Oc4ncccn4)c3c2)cc1` [Example 124, 3-(pyrimidin-2-yloxy)-5-(4-(trifluoromethoxy)phenyl)benzo[d]isoxazole] yielded an inhibition at 1 µM in test [1] of 53.7%. For the same molecule, the inhibition at 3 µM in test [2] (setting [3]) is 49.9%; in test [2] (setting [4]), below 5%.

In test [1], `COc1cc(OC(F)(F)F)ccc1-c1ccc2onc(OCc3ncccn3)c2c1` [Example 4, 5-(2-methoxy-4-(trifluoromethoxy)phenyl)-3-(pyrimidin-2-ylmethoxy)benzo[d]isoxazole] displayed an inhibition at 0.3 µM of 29.7% and an inhibition at 1 µM of 62.9%. In test [2] (setting [3]), the inhibition at 3 µM is 38%. The inhibition at 3 µM in test [2] (setting [4]) amounted to 17.9%.

Regarding `CC(C)[C@H](N)COc1noc2ccc(-c3ccc(OC(F)(F)F)cc3)cc12` [Example 118, (S)-3-methyl-1-((5-(4-(trifluoromethoxy)phenyl)benzo[d]isoxazol-3-yl)oxy)butan-2-amine], the inhibition at 0.3 µM in test [1] stood at 22.5%. The same molecule registered an inhibition at 1 µM in test [1] of 66.1%. The figures for the inhibition at 3 µM in test [2] (setting [3]) and in test [2] (setting [4]) were 88.8% and 56.1%, respectively.

In test [1], `O=C1OCCN1CCOc1noc2ccc(-c3ccc(OC(F)(F)F)cc3)cc12` [Example 75, 3-(2-((5-(4-(trifluoromethoxy)phenyl)benzo[d]isoxazol-3-yl)oxy)ethyl)oxazolidin-2-one] returned an inhibition at 0.3 µM of 29.3% and an inhibition at 1 µM of 59.5%. Moreover, in test [2] (setting [3]), the inhibition at 3 µM came to 36.9%. Moreover, in test [2] (setting [4]), the inhibition at 3 µM was below 5%.

For the molecule `CN1CCC[C@H]1COc1noc2ccc(-c3ccc(OC(F)(F)F)cc3)cc12` [Example 71, (S)-3-((1-methylpyrrolidin-2-yl)methoxy)-5-(4-(trifluoromethoxy)phenyl)benzo[d]isoxazole], in test [1], the inhibition at 0.3 µM came out at 41.7%. The molecule further displayed an inhibition at 1 µM in test [1] of 81.5%. The inhibition at 3 µM in test [2] (setting [3]) was found to be 61.1%; in test [2] (setting [4]), 44.4%.

In test [1], `Cc1cc(-c2ccc(OC(F)(F)F)cc2)cc2c(OCc3nnc(C4CC4)o3)noc12` [Example 105, 3-((5-cyclopropyl-1,3,4-oxadiazol-2-yl)methoxy)-7-methyl-5-(4-(trifluoromethoxy)phenyl)benzo[d]isoxazole] gave an inhibition at 1 µM of 53.7%. For the same molecule, the inhibition at 3 µM in test [2] (setting [3]) turned out to be 9.4%; in test [2] (setting [4]) it was 27.8%.

In the case of `Cc1cc(-c2ccc3onc(OCc4ncccn4)c3c2)ccc1OC(F)(F)F` [Example 7, 5-(3-methyl-4-(trifluoromethoxy)phenyl)-3-(pyrimidin-2-ylmethoxy)benzo[d]isoxazole], in test [1], the inhibition at 1 µM is 47.5%. Also, the inhibition at 3 µM in test [2] (setting [3]) is 16.3%; in test [2] (setting [4]), below 5%.

`Cc1cc2onc(OCc3ncccn3)c2cc1-c1ccc(C(F)(F)F)cc1F` [Example 28, 5-(2-fluoro-4-(trifluoromethyl)phenyl)-6-methyl-3-(pyrimidin-2-ylmethoxy)benzo[d]isoxazole]: in test [1], the inhibition at 0.3 µM is 26.7% and the inhibition at 1 µM worked out at 54.4%. Also, the inhibition at 3 µM in test [2] (setting [3]) came to 21.6%. The inhibition at 3 µM in test [2] (setting [4]) is below 5%.

Take `Cc1cc(-c2ccc(OC(F)(F)F)cc2)cc2c(OCc3cn(C)nn3)noc12` [Example 87, 7-methyl-3-((1-methyl-1H-1,2,3-triazol-4-yl)methoxy)-5-(4-(trifluoromethoxy)phenyl)benzo[d]isoxazole]: in test [1], the inhibition at 0.3 µM worked out at 18.4% and the inhibition at 1 µM was found to be 62.7%. In addition, in test [2] (setting [3]), the inhibition at 3 µM came to 54.7%. The inhibition at 3 µM in test [2] (setting [4]) amounted to 39%.

As to `FC(F)(F)Oc1ccc(-c2ccc3onc(-n4cnc(C(F)(F)F)c4)c3c2)cc1` [Example 145, 5-(4-(trifluoromethoxy)phenyl)-3-(4-(trifluoromethyl)-1H-imidazol-1-yl)benzo[d]isoxazole], in test [1], the inhibition at 0.3 µM was found to be 61.7% and the inhibition at 1 µM was found to be 84.9%. In addition, the inhibition at 3 µM in test [2] (setting [3]) was 93%. Moreover, in test [2] (setting [4]), the inhibition at 3 µM is below 5%.

In test [1], `Cc1nccnc1COc1noc2ccc(-c3ccc(OC(F)(F)F)cc3)cc12` [Example 152, 3-((3-methylpyrazin-2-yl)methoxy)-5-(4-(trifluoromethoxy)phenyl)benzo[d]isoxazole] yielded an inhibition at 0.3 µM of 19.8% and an inhibition at 1 µM of 53.4%. Besides, in test [2] (setting [3]), the inhibition at 3 µM worked out at 30.6%. Besides, the inhibition at 3 µM in test [2] (setting [4]) is below 5%.

In test [1], `FC(F)(F)Oc1ccc(-c2ccc3onc(OCc4nnc(C5CC5)o4)c3c2)cc1` [Example 96, 3-((5-cyclopropyl-1,3,4-oxadiazol-2-yl)methoxy)-5-(4-(trifluoromethoxy)phenyl)benzo[d]isoxazole] returned an inhibition at 0.3 µM of 21.1% and an inhibition at 1 µM of 59.2%. For the same molecule, in test [2] (setting [3]), the inhibition at 3 µM is 29.4%. Also, the inhibition at 3 µM in test [2] (setting [4]) is below 5%.

On to `COc1cc2onc(OCc3ncccn3)c2cc1-c1ccc(F)c(Cl)c1` [Example 15, 5-(3-chloro-4-fluorophenyl)-6-methoxy-3-(pyrimidin-2-ylmethoxy)benzo[d]isoxazole], for which the inhibition at 1 µM in test [1] was found to be 32.2%. For the same molecule, the inhibition at 3 µM was 14.3% in test [2] (setting [3]) and below 5% in test [2] (setting [4]).

Turning to `Nc1noc2ccc(-c3ccc(OC(F)(F)F)cc3)cc12` [Example 147, 5-(4-(trifluoromethoxy)phenyl)benzo[d]isoxazol-3-amine], the inhibition at 1 µM in test [1] amounted to 45.4%. Also, the inhibition at 3 µM in test [2] (setting [3]) worked out at 26%; in test [2] (setting [4]) it was 3%.

In test [1], `FC(F)(F)Oc1ccc(-c2ccc3onc(OCc4cccnn4)c3c2)cc1` [Example 74, 3-(pyridazin-3-ylmethoxy)-5-(4-(trifluoromethoxy)phenyl)benzo[d]isoxazole] gave an inhibition at 0.3 µM of 15.7% and an inhibition at 1 µM of 60.9%. For the same molecule, the inhibition at 3 µM in test [2] (setting [3]) was 23.5%. Besides, the inhibition at 3 µM in test [2] (setting [4]) was below 5%.

For `COc1ccnc(COc2noc3ccc(-c4ccc(OC(F)(F)F)cc4)cc23)n1` [Example 67, 3-((4-methoxypyrimidin-2-yl)methoxy)-5-(4-(trifluoromethoxy)phenyl)benzo[d]isoxazole], in test [1], the inhibition at 0.3 µM was determined as 54.4% and the inhibition at 1 µM is 77.4%. Moreover, the inhibition at 3 µM in test [2] (setting [3]) was determined as 48.7%. Also, the inhibition at 3 µM in test [2] (setting [4]) is below 5%.
